Results on 21 compounds are retold here after patent US7488716B2 (priority 2001, dated 2009).

Where a SMILES comes first, the peptide text is derived from it. Where no end group is shown, it is not given here. The star is where a group is joined. Palmitoyl = CCCCCCCCCCCCCCCC(=O)*

The target in assay [1] is T1, GLP-1 receptor (Rattus norvegicus, UniProt P32301).
T1 construct: endogenous in cells; host or cells: RINm5F cells
T1 sequence (P32301 22-463): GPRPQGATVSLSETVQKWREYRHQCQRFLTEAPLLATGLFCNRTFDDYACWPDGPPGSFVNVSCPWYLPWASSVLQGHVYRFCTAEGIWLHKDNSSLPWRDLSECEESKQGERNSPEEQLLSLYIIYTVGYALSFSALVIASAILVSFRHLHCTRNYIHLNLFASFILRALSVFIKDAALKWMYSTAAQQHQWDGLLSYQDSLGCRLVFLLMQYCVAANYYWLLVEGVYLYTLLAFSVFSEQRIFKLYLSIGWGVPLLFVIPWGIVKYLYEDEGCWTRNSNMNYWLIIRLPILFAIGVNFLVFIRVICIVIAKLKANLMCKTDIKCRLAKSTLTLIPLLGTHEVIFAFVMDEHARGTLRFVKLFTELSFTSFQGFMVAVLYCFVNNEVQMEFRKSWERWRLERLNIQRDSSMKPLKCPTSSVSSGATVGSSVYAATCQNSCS
Description: Peptide signaling through GLP-1 receptor, cAMP scintillation proximity assay in RINm5F cells. It counts as cell-based. Particulars: for GLP1 Relative Potency: EC50 of native GLP-1 (7-36) divided by EC50 of polypeptide x 100, cAMP in RINm5F cells; for Emax: RIN-m5F, read-out: % GLP1 max. The protocol: The media was removed and the cells were washed twice with PBS. […] For assay of peptides conjugated with fatty acid, the BSA was omitted from the incubation buffer. The incubation buffer was removed, and the cells were lysed in the lysis reagent provided with the cAMP Scintillation Proximity Assay (SPA) direct screening assay system (Amersham Pharmacia Biotech Inc, Piscataway, N.J.). The amount of cAMP (in pmol) present in the lysates was determined following instructions provided with this kit.
The amount of cAMP (in pmol) produced at each concentration of peptide was plotted and analyzed by nonlinear regression using Prizm software to determine the EC50 for each peptide.
(In a scintillation proximity assay essentially only radioactivity close to the scintillant gives light.)

Another assay concerns the target T2, glucagon receptor (Rattus norvegicus, UniProt P30082).
T2 construct: glucagon receptor present in the plasma membranes isolated from rat liver; from tissue; host or cells: rat liver plasma membranes
The assay is described as follows: Competitive binding of peptide to the glucagon receptor in rat liver plasma membranes (125I glucagon). Here is the method:
The wet weight of the livers was determined and the tissue minced in 5 volumes of ice cold TES buffer and a slurry prepared using a polytron. All buffers and spins were kept at 4° C. The slurry was further homogenized using three strokes of a handheld dounce homogenizer. The homogenate was passed through several layers of cheesecloth and spun at 25,000×g for 10 minutes. Pellets were homogenized in 22.1 ml TES buffer using 10 strokes of a handheld dounce homogenizer. Twenty-seven point nine milliliters of 2.4 M sucrose in TE was added and mixed well. The homogenate was distributed among several tubes, and each tube was overlaid with 7 ml of TES buffer. The tubes were spun at 120,000×g for 60 minutes. The plasma membranes were removed from the interface that formed during the spin, diluted in TES and concentrated using a 15 minute spin at 200,000×g. The resulting pellet was again homogenized in 9.8 ml TES buffer, combined with 10.3 ml 2.4M sucrose, overlaid with 7 ml TES, and centrifuged at 180,000×g for 30 min. […] The final pellet was resuspended in TES. Plasma membranes were stored at −80° C. until ready for use.
Competitive binding of some polypeptides of the invention to rat liver plasma membranes was measured as follows. Ninety-six-well GF/C filtration plates (Millipore, Bedford, Mass.) were blocked with 0.1% PEI for at least one hour and washed twice with binding buffer consisting of 20 mM Tris, 2 mM EDTA, pH 7.5, 1 mg/ml BSA, and 1 mg/ml bacitracin. […] The plates were dried, scintillant was added to each well, and cpm per well determined using a Wallac Microbeta counter.

Assay [2] concerns the target T1, GLP-1 receptor. Description: Competitive binding of peptide to the GLP-1 receptor in RINm5F cell plasma membranes (125I GLP-1). Particulars: read-out: GLP1 RIN IC50. Here is the method: Flasks of RINm5F cells were washed with PBS, scraped in 20 mM Hepes-1 mM EDTA-250 mM sucrose buffer containing protease inhibitors (HES) and homogenized in a dounce homogenizer followed by repeated resuspension through a 23 gauge needle. Unbroken cells and nuclei were removed by centrifugation at 500×g for 5 minutes. The pellet was resuspended in HES buffer using a 23 gauge needle and the centrifugation was repeated. The supernatants from the two spins were combined and centrifuged at 40,000×g for 20 min. The resulting plasma membrane pellet was resuspended in HES buffer using a 23 gauge needle followed by a 25 gauge needle. Membranes were stored at −80° C. until use.
Competitive binding of some polypeptides of the invention to RINm5F cell plasma membranes was measured as follows. Ninety-six-well GF/C filtration plates (Millipore, Bedford, Mass.) were blocked with 0.3% PEI for at least one hour and washed twice with binding buffer consisting of 20 mM Tris, 2 mM EDTA, pH 7.5, 1 mg/ml BSA, and 1 mg/ml bacitracin. […] The plates were dried, scintillant was added to each well, and cpm per well determined using a Wallac Microbeta counter.

Assay [3] can be described thus: Intraperitoneal glucose tolerance testing (IPGTT) in rats or mice. It counts as in vivo. As to conditions: ipGTT in mice 3 hours post dosing with 100 μg/kg peptide. The protocol: Blood glucose levels during intraperitoneal glucose tolerance testing in rats or mice by some polypeptides of the invention were measured as follows. The in vivo activity of the polypeptides of the invention when administered subcutaneously was examined in rats or mice. Rats or mice fasted overnight were given a subcutaneous injection of control or peptide (100 μg/kg). Basal blood glucose was measured prior to administration of peptides or three or 17 hours after administration of derivatized peptides, and the rats or mice were given 2 g/kg of glucose intraperitoneally. Blood glucose was measured again after 15, 30 and 60 minutes in rats or 30 and 60 minutes in mice.

T2 sequence (P30082 27-485): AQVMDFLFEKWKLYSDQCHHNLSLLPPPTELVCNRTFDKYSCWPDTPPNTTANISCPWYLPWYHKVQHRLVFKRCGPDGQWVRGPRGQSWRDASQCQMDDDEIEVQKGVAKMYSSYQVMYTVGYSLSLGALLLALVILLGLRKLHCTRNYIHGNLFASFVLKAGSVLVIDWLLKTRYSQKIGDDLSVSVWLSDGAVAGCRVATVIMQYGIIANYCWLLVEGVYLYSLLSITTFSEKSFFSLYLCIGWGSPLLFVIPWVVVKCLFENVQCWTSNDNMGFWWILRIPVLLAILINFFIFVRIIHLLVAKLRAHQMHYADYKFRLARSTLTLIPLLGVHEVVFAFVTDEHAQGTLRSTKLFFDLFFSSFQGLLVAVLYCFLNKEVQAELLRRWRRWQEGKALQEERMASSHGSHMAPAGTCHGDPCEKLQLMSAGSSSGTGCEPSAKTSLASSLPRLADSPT

In general, IC50 refers to the point on the concentration scale where inhibition reaches its midpoint. In the case of `CC(C)C[C@H](NC(=O)[C@H](Cc1ccc(O)cc1)NC(=O)[C@H](CCCCN)NC(=O)[C@H](CO)NC(=O)[C@H](Cc1ccc(O)cc1)NC(=O)[C@H](CC(=O)O)NC(=O)[C@H](CO)NC(=O)[C@@H](NC(=O)[C@H](Cc1ccccc1)NC(=O)[C@@H](NC(=O)CNC(=O)[C@H](CCC(N)=O)NC(=O)[C@H](CO)NC(=O)[C@@H](N)Cc1c[nH]cn1)[C@@H](C)O)[C@@H](C)O)C(=O)N[C@@H](CC(=O)O)C(=O)N[C@@H](CO)C(=O)N[C@@H](CCCNC(=N)N)C(=O)N[C@@H](CCCNC(=N)N)C(=O)N[C@@H](C)C(=O)N[C@@H](CCC(N)=O)C(=O)N[C@@H](CC(=O)O)C(=O)N[C@@H](Cc1ccccc1)C(=O)N[C@H](C(=O)N[C@@H](CCC(N)=O)C(=O)N[C@@H](Cc1c[nH]c2ccccc12)C(=O)N[C@@H](CC(C)C)C(=O)N[C@H](C(=O)N[C@@H](CCCCN)C(=O)NCC(=O)N[C@@H](CCCNC(=N)N)C(N)=O)C(C)C)C(C)C` [G1], the “GLP1 Relative Potency” value on GLP-1 receptor [1] turned out to be 6.9%. Also, on GLP-1 receptor [1], the Emax came to 112%. For the same compound, the IC50 worked out at 6.6 nM at glucagon receptor and 6 nM at GLP-1 receptor [2].
With `CCCCCCCCCCCCCCCC(=O)NCCCC[C@H](NC(=O)[C@H](C)NC(=O)[C@H](CCCNC(=N)N)NC(=O)[C@H](CCCNC(=N)N)NC(=O)[C@H](C)NC(=O)[C@H](CC(=O)O)NC(=O)[C@H](CC(C)C)NC(=O)[C@H](Cc1ccc(O)cc1)NC(=O)[C@H](CCCNC(=N)N)NC(=O)[C@H](C)NC(=O)[C@H](Cc1ccc(O)cc1)NC(=O)[C@H](CC(=O)O)NC(=O)[C@H](CO)NC(=O)[C@@H](NC(=O)[C@H](Cc1ccccc1)NC(=O)[C@@H](NC(=O)CNC(=O)[C@H](CCC(N)=O)NC(=O)[C@H](CO)NC(=O)[C@@H](N)Cc1c[nH]cn1)[C@@H](C)O)[C@@H](C)O)C(=O)N[C@@H](CCC(=O)O)C(=O)N[C@@H](Cc1ccccc1)C(=O)N[C@H](C(=O)N[C@@H](CCCCN)C(=O)N[C@@H](Cc1c[nH]c2ccccc12)C(=O)N[C@@H](CC(C)C)C(=O)N[C@H](C(=O)N[C@@H](CCCNC(=N)N)C(=O)NCC(=O)N[C@@H](CCCNC(=N)N)C(=O)NCC(=O)O)C(C)C)[C@@H](C)CC` [G183] (H-HSQGTFTSDYARYLDARRAK(Palmitoyl)EFIKWLVRGRG-OH; N-terminus and C-terminus assumed), at GLP-1 receptor [1], the “GLP1 Relative Potency” value amounted to 0.6% and the Emax stood at 90.5%. Also, the “In vivo Decrease IpGTT AUC” value in assay [3] worked out at 27%.
Consider “HSQGTFTSDYAAYLDARRAKEFIAWLVKGR-NH2 [G56]”, for which, on GLP-1 receptor [1], the “GLP1 Relative Potency” value was determined as 37.2% and the Emax was 115%. At glucagon receptor, this compound had an IC50 of 125 nM. In addition, the IC50 at GLP-1 receptor [2] is 6.6 nM.
In the same order, the values of HSQGTFTSDYAKYLDAAKAKEFIAWLVKGRG [G60] are 22.3%, 95.7%, 682 nM and 13.8 nM.
As to “HSQGTFTSDYAKYLDAARAKEFIAWLVKGR-NH2 [G57]”, on GLP-1 receptor [1], the “GLP1 Relative Potency” value is listed as 18.3% and the Emax was 132%. Further, the IC50 on glucagon receptor worked out at 178 nM. At GLP-1 receptor [2], the 50% inhibitory concentration (IC50) worked out at 14.7 nM.
Take HSQGTFTSDYAKYLDAKKAKEFIAWLVKGRG [G58]: on GLP-1 receptor [1], the “GLP1 Relative Potency” value was 76.1% and the Emax amounted to 99%. Moreover, the IC50 at glucagon receptor was determined as 163 nM. For the same compound, the IC50 on GLP-1 receptor [2] was 6.9 nM.
For HSQGTFTSDYAKYLDARRACEFIAWLVKGRG [G71] the same measures were 4.3%, 93.3%, 25.6 nM and 5.8 nM.
In the same order, the values of HSQGTFTSDYAKYLDARRAKEFIAWLVCGRG [G74] are 8.4%, 88.7%, 21.7 nM and 4.4 nM.
For the compound HSQGTFTSDYAKYLDARRAKEFIAWLVKCRG [G75], at GLP-1 receptor [1], the “GLP1 Relative Potency” value came out at 6.6% and the Emax worked out at 86.1%. The same compound had an IC50 at glucagon receptor of 54 nM. On GLP-1 receptor [2], the IC50 is 7.7 nM.
For HSQGTFTSDYAKYLDARRAKEFIAWLVKGCG [G76] the same measures were 7.7%, 85%, 59.1 nM and 10.2 nM.
In the case of HSQGTFTSDYAKYLDARRAKEFIAWLVKGRC [G77], on GLP-1 receptor [1], the “GLP1 Relative Potency” value came to 9.5% and the Emax came out at 92.1%. Besides, the IC50 on glucagon receptor was 61.1 nM. Further, the IC50 at GLP-1 receptor [2] is 8.9 nM.
For the compound HSQGTFTSDYAKYLDARRAKEFIAWLVKGRG [G51], at GLP-1 receptor [1], the “GLP1 Relative Potency” value was 58.1% and the Emax is 91.2%. The same compound showed an IC50 on glucagon receptor of 154 nM. For the same compound, the concentration for half-maximal inhibition (IC50) at GLP-1 receptor [2] came to 8.2 nM.
In the same order, the values of HSQGTFTSDYARYLDAAKAKEFIAWLVKGRG [G61] are 12.1%, 96%, 232 nM and 10.6 nM.
For HSQGTFTSDYARYLDAKKAKEFIAWLVKGRG [G59] the same measures were 22.7%, 102%, 97.5 nM and 2.1 nM.
In the same order, the values of “HSQGTFTSDYARYLDARRAKEFIAWLVKGR-NH2 [G55]” are 18.6%, 116%, 139 nM and 9.8 nM.
Consider HSQGTFTSDYARYLDARRAKEFIAWLVRGRG [G82], for which, on GLP-1 receptor [1], the “GLP1 Relative Potency” value turned out to be 29.9% and the Emax came to 97.1%. For the same compound, the IC50 on glucagon receptor is 33.6 nM. Besides, the IC50 on GLP-1 receptor [2] worked out at 8.1 nM.
In the same order, the values of HSQGTFTSDYARYLDARRAREFIAWLVKGRG [G84] are 61.8%, 114%, 11.7 nM and 1.4 nM.
For HSQGTFTSDYARYLDARRAREFIAWLVRGRGK [G85] the same measures were 64.5%, 95.8%, 16.1 nM and 1.5 nM.
For HSQGTFTSDYARYLDARRAREFIKWLVRGRC [G185] the same measures were 13.0%, 104%, 48 nM and 4.5 nM.
Consider HSQGTFTSDYARYLDARRAREFIKWLVRGRG [G83], for which, at GLP-1 receptor [1], the “GLP1 Relative Potency” value is on record as 29.9% and the Emax is 89.4%. Also, the IC50 on glucagon receptor was 28.6 nM. Also, at GLP-1 receptor [2], the IC50 was 3.2 nM.
For HSQGTFTSDYSKYLEGQAAKEFIAWLVKGR-NH2 [G5] the same measures were 69.9%, 109%, 243 nM and 0.5 nM.
